From patent US4522839A, “3-Substituted 2,4,6-trihalogenated benzamides as sweetening agents” (Schering Aktiengesellschaft, priority 1980, dated 1985)
Where two headings read alike, the source gives them in different places. Residues, ends and D or L forms follow the SMILES beside them.

Experiments:
mice = conditions: for Number of Dead Animals/Number of Animals Utilized: mice, intraperitoneal
in vivo = conditions: mouse, ip
[1] = Degree of sweetening compared with 5% sucrose solution (taste test); set-up: species or system healthy volunteers; conditions: times the sweetening power of sucrose (sucrose = 1), average of 3 taste tests
Protocol: (§1) The taste tests were conducted by three healthy volunteers; the solutions were coded by letter-number combinations and randomized so that the tester could not know which compound he or she tasted. Also the reference solution (5% sucrose) remained part of the randomizing plan initially, for the purpose of general taste characteristics of the compounds.

[2] = Identification threshold values (cts) of sweeteners (triangle test) and comparison with sucrose; set-up: species or system persons; conditions: for Identification Threshold Values (cts): tap water, pH 6-7 if necessary with NaOH, 5 persons, triangle test, 1 ml samples; for f suc, mol (cts): compound, sweetening power relative to sucrose, molar
Protocol: These sensory investigations were conducted by 5 persons; all samples were encoded by a person not participating in the test. […] Consecutive samples of 1 ml were consumed. The approximate concentration values determined in a preliminary test were inserted, in the main experiment, in the middle of a dilution series. All solutions of a compound were encoded with two water samples (triangle test). The testers must indicate which of the three samples of decreasing concentration are considered to be sweet. The identification threshold value is set forth to be the lowest concentration range (cts) at which the testers still render a correct judgment.

[3] = General taste evaluation of aqueous solutions in concentration stages 1-8 (blind taste test); set-up: species or system healthy volunteers; conditions: average results of 3 taste tests
Protocol: The following concentrations correspond to the 8 concentration stages tested:
as §1

[4] = literature (Hager's Manual), b158: also determined by all three testers in a blind taste test, cited from earlier work

SMILES	Degree of Sweetening [1]	Identification Threshold Values (cts) [2]	f suc, mol (cts) [2]	further results
NC(=O)c1c(Br)cc(Br)c(CCC(=O)O)c1Br [A, 3-(3-carbamoyl-2,4,6-tribromophenyl)propionic acid]	6000-7000	0.6 to 1.4 µmol/L		General compatibility (mice; intraperitoneal injection in mice): approximately the same good compatibility as sodium saccharin; Number of Dead Animals/Number of Animals Utilized (mice; 3.0 g/kg BW): 2/10; Number of Dead Animals/Number of Animals Utilized (mice; 6.0 g/kg BW): 6/10; Number of Dead Animals/Number of Animals Utilized (mice; 9.0 g/kg BW): 10/10; LD50 (in vivo): ~6000 mg/kg; General Taste Evaluation, concentration stage 7 ([3]; 0.781 mg/100 ml (1/6400 of 5% sucrose)): Sweet; General Taste Evaluation, concentration stage 6 ([3]; 1.563 mg/100 ml (1/3200 of 5% sucrose)): Sweet
COC(=O)[C@H](Cc1ccccc1)NC(=O)[C@@H](N)CC(=O)O [Aspartame] (H-Asp-Phe-OMe)		20 to 60 µmol/L	275	
O=S(=O)(O)NC1CCCCC1 [Cyclamate]	< 100	1000 to 3000 µmol/L	5.5	Degree of sweetening known from the literature [4]: 30-70; Degree of sweetening known from the literature ([4]; listed as Sodium cyclamate): 70
CCOc1ccc(NC(N)=O)cc1 [Dulcin]		15 to 30 µmol/L	489	
NC(=O)c1c(I)cc(I)c(CCC(=O)O)c1I [E, 3-(3-carbamoyl-2,4,6-triiodophenyl)propionic acid]		1.0 to 2.0 µmol/L		
NC(=O)c1c(I)cc(I)c(OCC(=O)O)c1I [F, 3-carbamoyl-2,4,6-triiodophenoxyacetic acid]		15 to 25 µmol/L		
NC(=O)c1c(Cl)cc(Cl)c(CCC(=O)O)c1Cl [G, 3-(3-carbamoyl-2,4,6-trichlorophenyl)propionic acid]		2.5 to 4.0 µmol/L		
O=C1NS(=O)(=O)c2ccccc21.[Na] [Sodium Saccharin]	400	15 to 30 µmol/L	489	Number of Dead Animals/Number of Animals Utilized (mice; 3.0 g/kg BW): 0/10; Number of Dead Animals/Number of Animals Utilized (mice; 6.0 g/kg BW): 5/10; Degree of sweetening known from the literature [4]: 400; General Taste Evaluation, concentration stage 2 ([3]; 25.0 mg/100 ml (1/200 of 5% sucrose)): Sweet; General Taste Evaluation, concentration stage 1 ([3]; 50.0 mg/100 ml (1/100 of 5% sucrose)): Sweet
OC[C@H]1O[C@@](CO)(O[C@H]2O[C@H](CO)[C@@H](O)[C@H](O)[C@H]2O)[C@@H](O)[C@@H]1O [Sucrose]	1	10000 to 12000 µmol/L	1	
